Patent US6482609B1, “Isolated human EDG-4 receptor and polynucletide encoding said receptor” (priority 1997, dated 2002)
“Also recorded” adds a separate entry of the source.

Tests used:
HeLa cells = assay: Cytotoxicity (viable cell count) in HeLa cells; type: cell-based, human; conditions: S1P concentrations up to 10 μM
Source text: Follow Procedure #2 For HeLa Cells with the following exceptions: […]

HL-60 cells [1] = assay: IL-8 ELISA on HL-60 cells; type: cell-based, human; conditions: 1, 6 or 24 hr, S1P or LPA up to 3 μM, TNF-α 10 ng/ml
Description: Procedure for HL-60 Cells:
Cells: HL-60 (promyelocytic, human) suspension cells
Media: RPMI 1640 medium with 2 mM L-glutamine adjusted to contain 4.5 g/L glucose, 10 mM HEPES, and 1.0 mM sodium pyruvate+10% FBS
1) Cells were plated at a density of 0.25×10^6 cells/ml.
2) Cell pellcts were resuspended in 0.5% FBS media at a density of approximately 1×10^6 cells/ml.
1) Made up all required solutions in 0.5% FBS media (control).
2) 1.4 ml appropriate treatments were added to each well of a 6-well plate.
5) 100 μl cell suspension was added to each well.
7) After the specified time cell supematants were collected into 1.5 ml eppendorf tubes, spun down at 14000 rpm for 5 minutes and stored at −20° C.
D. Refer to Procedure #1 For HeLa Cells (D).

EDG-1 [2] = molecular target: T1, EDG-1 (Homo sapiens, UniProt P21453); assay: NF-κB luciferase reporter in 293-EBNA cells, EDG-1; type: cell-based; set-up: expressed in transfected cells; host or cells: 293-EBNA; conditions: 3 μM, 6 hours
T1 sequence (P21453 whole entry): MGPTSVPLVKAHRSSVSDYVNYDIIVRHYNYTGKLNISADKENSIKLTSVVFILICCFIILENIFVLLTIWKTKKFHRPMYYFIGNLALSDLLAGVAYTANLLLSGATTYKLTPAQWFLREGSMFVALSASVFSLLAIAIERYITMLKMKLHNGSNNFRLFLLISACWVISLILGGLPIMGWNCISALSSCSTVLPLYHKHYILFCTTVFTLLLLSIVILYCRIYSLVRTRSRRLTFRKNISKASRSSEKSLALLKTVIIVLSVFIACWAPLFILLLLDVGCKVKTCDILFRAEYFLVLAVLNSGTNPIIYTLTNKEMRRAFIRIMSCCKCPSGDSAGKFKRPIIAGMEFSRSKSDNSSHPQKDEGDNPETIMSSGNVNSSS
Description: 3) 30 μl Lipofectamine Reagent (Lipofectamine Plus Kit) was diluted in 750 μl DMEM/F12. The diluted Lipofectamine was then combined with the DNA/Plus mixture and incubated at room temperature for 15 min. […] 2) Transfected cells were harvested by trypsinization and 50,000 cells per well were plated in 96-well Blackview plates coated with poly D-lysine (Becton Dickinson Labware, Cat. 40640). No cells were plated in the outside wells of the 96-well plate. […] 1) Media was removed and cells treated with compounds diluted in DMEM/F12 media. […] 2) The cells were treated for 6 hours. 3) Luciferase assay was performed.

EDG-1 [3] = molecular target: T1, EDG-1; assay: SRE luciferase reporter (2XSREtk-p4Luc-zeo) in 293-EBNA cells, EDG-1; type: cell-based; set-up: expressed in transfected cells; host or cells: 293-EBNA; conditions: 3 μM, 6 hours
HL-60 cells [4] = assay: Cytotoxicity (cell viability) in HL-60 cells; type: cell-based, human
Description: For this purpose, an experiment was conducted to measure cytotoxicity in parallel with IL-8 response. […] Therefore, IL-8 production had to be robust to be observed at 6 hr, while even slight or delayed toxicity would be seen as a loss of viability at 24 hr.

COS-1 cells = assay: IL-8 ELISA on control COS-1 cells (empty vector pcDNA3); type: cell-based; conditions: COS-1 cells transfected with pcDNA3; S1P 5 μm
Description: A. DEAE/Dextran Cell Suspension Transient Transfection.
Transfection was done as described in Anal Biochem 218:460 (1994).
1) 6 ml RSC was added to 4-50 ml tubes. The following amounts of DNA were added:
3) 1.5 ml COS-1 cell suspension (5.5×10^6 cells total) in RSC was added to each tube and incubated for 105 min in 37° C. incubator. Tubes were mixed every 20 min.
4) Following incubation, tubes were spun for 5 min, cell pellets were washed with DMEM/F12+10% FBS once and then resuspended in 10 ml media. Cells were plated in 24-well plates at 0.2×10^6 cells/well.
500 μl treatment volume was used. Supernatants were microfuged at 14,000 rpm for 10 min., transferred to new eppendorf tubes and stored at −20° C. for future IL-8 ELISA determination.
The procedure as outlined in Procedure for HeLa Cells (D) was followed, using 50 μl of sample per ELISA determination in duplicate.

rat edg4 = rat edg4 (Rattus norvegicus, UniProt P47752); assay: SRE luciferase reporter in 293-EBNA cells, rat EDG-4; type: cell-based; set-up: expressed in transfected cells; host or cells: 293-EBNA; conditions: 3 μM SPC, 6 hr
rat edg4, sequence (P47752 whole entry): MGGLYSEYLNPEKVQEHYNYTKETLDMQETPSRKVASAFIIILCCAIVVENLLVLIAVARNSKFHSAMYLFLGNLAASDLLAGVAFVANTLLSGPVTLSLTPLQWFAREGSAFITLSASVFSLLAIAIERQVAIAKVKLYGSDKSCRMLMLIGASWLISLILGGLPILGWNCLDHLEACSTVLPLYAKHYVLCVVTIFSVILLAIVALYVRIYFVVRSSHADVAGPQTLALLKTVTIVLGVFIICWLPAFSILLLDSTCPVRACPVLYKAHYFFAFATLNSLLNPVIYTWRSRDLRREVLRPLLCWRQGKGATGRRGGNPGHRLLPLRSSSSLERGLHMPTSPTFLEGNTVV
Description: Transfection was accomplished using the Lipofectamine Plus kit (Life Technologies, Cat. 10964-013), using the manufacturer's recommended conditions. Optimal SRE induction was seen when cells were seeded so as to become 100% confluent at the time of treatment, 72-96 hr after transfection.

[5] = tested on: Human Umbilical Vein Endothelial Cells (HUVEC); assay: IL-8 ELISA on primary cultured HUVEC treated with lysolipids; type: cell-based; conditions: 6 hr treatment
Description: Plating, Pretreatment and Treatment of HUVEC
Procedures were followed as detailed above in “Procedure #1 for HeLa Cells” with the following exceptions:
Cells were plated at 20,000 cells/well into 24-well plates. The next day, cells were serum-starved overnight in EBM medium (Clonetics) with 0.5% FBS, and then treated in EBM without FBS for 6 hr with the following lysolipids:
Supematants were collected and IL-8 levels were deternined using ELISA as described previously.

Compound	Cell viability 24 hr after treatment (HeLa cells)	IL-8 release (HL-60 cells [1])	Luciferase activity (NF-κB reporter) (EDG-1 [2])	Increase in luciferase activity (SRE reporter) (EDG-1 [3]) [fold]	Concentration at which toxicity begins (HL-60 cells [4]) [µM]	IL-8 response in control cells (COS-1 cells)	Induction of luciferase activity (SRE reporter) (rat edg4) [fold]	IL-8 response (qualitative) [5]
CCCCCCCCCCCCC/C=C/[C@@H](O)[C@@H](N)COP(=O)(O)O [S1P, sphingosine-1-phosphate]	No loss of HeLa viability	no such release; also recorded: fail to produce IL-8	no increase in luciferase activity	8	10	No IL-8 response	–	–
CCCCCCCCCCCCC/C=C/[C@@H](O)[C@@H](N)COP(=O)([O-])OCC[N+](C)(C)C [SPC, sphingosylphosphorylcholine]	–	–	–	–	–	–	35.6	Marginal increases
